Data reported in paper PMC4184701 (Pharmacology Research & Perspectives, 2014).
Values joined by “and” are separate entries in the source; they are usually repeats but may differ in a detail not shown here. Equal entries are not always repeated. Where two headings read alike, the source gives them in different places.

What was measured:
[1] = target: T1, BACE1 (Homo sapiens, UniProt P56817); settings: cited from earlier work
[2] = system: THP-1 cells; test: Aβ1-42 oligomer-induced cytotoxicity, MTT assay, THP-1 cells; format: cell-based; settings: Homo sapiens, read-out: IC50 Aβ1-42 oligomer toxicity THP-1 cells
[3] = system: hAChE-induced amyloid aggregation; parameters: method as in Piazzi et al. [2003], [2007]; settings: at 100 μmol/L concentration; ref Piazzi et al. [2003], [2007]; cited from earlier work
[4] = target: T2, BuChE derived from human serum (Homo sapiens, UniProt P06276); test: biochemical; format: biochemical; settings: ± SEM; 20 min preincubation at 37°C, pH 8.0; read-out: IC50 hBuChE
T2 construct: BuChE derived from human serum (Sigma Chemical, Milan, Italy); purchased Sigma Chemical, Milan, Italy; host or cells: human serum
T2 sequence (P06276 29-602): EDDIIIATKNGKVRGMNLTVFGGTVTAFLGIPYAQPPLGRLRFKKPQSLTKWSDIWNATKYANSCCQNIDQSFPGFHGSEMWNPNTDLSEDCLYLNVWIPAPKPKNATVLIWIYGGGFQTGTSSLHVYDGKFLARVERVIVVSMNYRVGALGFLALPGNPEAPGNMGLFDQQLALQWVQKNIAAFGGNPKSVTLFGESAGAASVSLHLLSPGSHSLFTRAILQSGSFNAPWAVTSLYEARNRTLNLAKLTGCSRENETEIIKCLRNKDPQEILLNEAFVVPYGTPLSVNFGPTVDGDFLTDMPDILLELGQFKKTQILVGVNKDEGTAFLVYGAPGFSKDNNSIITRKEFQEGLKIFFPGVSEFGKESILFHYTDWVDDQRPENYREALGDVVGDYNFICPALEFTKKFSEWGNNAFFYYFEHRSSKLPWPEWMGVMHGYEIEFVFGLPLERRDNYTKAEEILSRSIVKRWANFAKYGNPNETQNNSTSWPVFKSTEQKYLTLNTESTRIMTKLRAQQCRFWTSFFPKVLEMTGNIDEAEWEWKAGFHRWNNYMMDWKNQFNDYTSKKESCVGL

[5] = target: T3, Aβ1-42 (Homo sapiens, UniProt P05067); test: biochemical; settings: ± SEM; 50 μmol/L Aβ, 30°C, 24 h, ThT; highest tested concentration 50 μmol/L; read-out: IC50 Aβ1-42 self-aggregation
T3 construct: 1,1,1,3,3,3-hexafluoro-2-propanol pretreated Aβ1-42 samples (Bachem AG, Switzerland); purchased Bachem AG, Switzerland
T3 sequence (P05067 672-713 limits assumed): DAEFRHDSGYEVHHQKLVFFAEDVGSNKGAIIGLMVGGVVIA

[6] = system: SH-SY5Y cells; test: Aβ1-42 oligomer-induced cytotoxicity, MTT assay, SH-SY5Y cells; format: cell-based; settings: Homo sapiens; for IC50: 3 h, read-out: IC50 Aβ1-42 oligomer toxicity SH-SY5Y cells; for inhibition at 30 µM: read-out: toxicity inhibition
[7] = system: SH-SY5Y cells; test: Aβ1-42 oligomer binding to the cell surface (Congo red assay), SH-SY5Y cells; format: cell-based, human; settings: compound 30 μmol/L, Aβ1-42 oligomers 5 μmol/L, 30 min cotreatment
Method: (§1) SH-SY5Y and THP-1 cells were seeded in 96-well plates at 5 × 10^3 cells/well and 5 × 10^4 cells/well, respectively, for 24 h. At the end of incubation, the medium was changed with a fresh one with Aβ1-42 oligomer (5 μmol/L) and various compounds at 30 μmol/L for 30 min and then washed twice with PBS. The residual Aβ1-42 oligomer cell complex was stained with 1 μmol/L of Congo red (CR) in PBS for 20 min and measured with a spectrophotometer (TECAN®, GENios) at 540 nm (bound CR). CR values are reported as percent increases in treated cells versus untreated cells.

[8] = system: THP-1 cells; test: Aβ1-42 oligomer binding to the cell surface (Congo red assay), THP-1 cells; format: cell-based, human; settings: compound 30 μmol/L, Aβ1-42 oligomers 5 μmol/L, 30 min cotreatment
Method: as §1

[9] = target: T1, BACE1; test: Inhibition of BACE1 (FRET assay); format: biochemical; settings: ± SEM, Panvera peptide substrate, pH 4.5
[10] = system: SH-SY5Y cells; test: t-BuOOH-induced intracellular ROS formation (DCFH-DA, DHE); format: cell-based, human; settings: 3–30 μmol/L, 3 h pretreatment, t-BuOOH 50 μmol/L
Method: As above, the intracellular hydrogen peroxide and superoxide anion formation induced by tert-butyl hydroperoxide (t-BuOOH) at SH-SY5Y cell level was determined using, respectively, the probes DCFH-DA and DHE. Briefly, SH-SY5Y cells were cultured in 96-well microtiter plates at 3 × 10^4 cells/well for 24 h. The medium was then removed and the cells were treated for 3 h with various concentrations of compounds (3–30 μmol/L) at 37°C. After treatment, the cells were washed with PBS and then incubated with DCFH-DA (5 μmol/L) or DHE (10 μmol/L) in PBS at 37°C in 5% CO2 for 30 min. After removal of the probes and further washing, the cells were incubated with t-BuOOH (50 μmol/L) in PBS for 30 min. At the end of incubation, the green or red fluorescence of the cells from each well was measured with a spectrofluorometer (TECAN®, GENios). The results are expressed as fold increases in intracellular ROS evoked by exposure to t-BuOOH.

[11] = system: SH-SY5Y cells; test: Aβ1-42 oligomer-induced intracellular ROS formation (DCFH-DA, DHE); format: cell-based, human; settings: 3–30 μmol/L, 3 h pretreatment, Aβ1-42 oligomers 5 μmol/L
Method: The intracellular hydrogen peroxide and superoxide anion formation induced by Aβ1-42 oligomer at SH-SY5Y cell level was determined using, respectively, the probe 2′,7′-dichlorodihydrofluorescein diacetate (DCFH-DA, λexc = 485 nm, λem = 535 nm), and dihydroethidium (DHE, λexc = 380 nm, λem = 445 nm). SH-SY5Y cells were cultured in BD Falcon™ 8-well Culture slides (surface area 0.7 cm^2/well) at 1 × 10^4 cells/well for 24 h. The cells were then treated for 3 h with various concentrations of compounds (3–30 μmol/L) at 37°C prior to the treatment of 3 h with Aβ1-42 oligomer (5 μmol/L). At the end of treatment, the cells were washed and incubated with DCFH-DA (5 μmol/L) or DHE (10 μmol/L) for 30 min in the dark. After removal of the probes, cells were washed with PBS and incubated with DMEM serum free for 1 h at 37°C. Intracellular ROS formation was measured under a fluorescence microscope (Zeiss Axio Imager M1). Fluorescence images were captured with an AxioVision image recording system computer. Four randomly selected areas with 50–100 cells in each were analyzed and the values obtained are expressed as fold increases in hydrogen peroxide and superoxide anion versus untreated cells.

[12] = system: THP-1 cells; test: Aβ1-42 oligomer-induced NO and TNFα release; format: cell-based, human; settings: 30 μmol/L
Method: THP-1 cells were seeded in 96-well plates at 5 × 10^4 cells/well for 24 h. At the end of incubation, the medium was changed with a fresh one with AP2469 30 μmol/L for 3 h. The cells were then washed with PBS and incubated for a further 12 h with Aβ1-42 oligomer (5 μmol/L). The content of each well was then removed and centrifuged at 2500g for 10 min, and the supernatant was frozen at −20°C for the subsequent analysis of released NO and tumor necrosis factor alpha (TNFα). To determine the NO levels, 100 μL of supernatant was incubated with 100 μL of Griess reagent (Sigma Aldrich) in the dark at room temperature for 15 min. The intensity of the color that developed was then measured at 540 nm using a spectrophotometer (TECAN®, GENios). Values are reported as percent increases in treated cells versus untreated cells. The TNFα levels in 100 μL of supernatant were determined by Ray Bio® ELISA kit according to the manufacturer's instructions (Ray Biotech, Inc., GA). The concentration of TNFα levels was calculated from a TNFα standard curve standard of 25–6000 pg/mL and the values are reported as percent increases in treated cells versus untreated cells.

[13] = target: human recombinant AChE (Homo sapiens, UniProt P22303); test: biochemical; settings: ± SEM; 20 min preincubation at 37°C, pH 8.0; read-out: IC50 hAChE
Sequence of human recombinant AChE (P22303 32-614): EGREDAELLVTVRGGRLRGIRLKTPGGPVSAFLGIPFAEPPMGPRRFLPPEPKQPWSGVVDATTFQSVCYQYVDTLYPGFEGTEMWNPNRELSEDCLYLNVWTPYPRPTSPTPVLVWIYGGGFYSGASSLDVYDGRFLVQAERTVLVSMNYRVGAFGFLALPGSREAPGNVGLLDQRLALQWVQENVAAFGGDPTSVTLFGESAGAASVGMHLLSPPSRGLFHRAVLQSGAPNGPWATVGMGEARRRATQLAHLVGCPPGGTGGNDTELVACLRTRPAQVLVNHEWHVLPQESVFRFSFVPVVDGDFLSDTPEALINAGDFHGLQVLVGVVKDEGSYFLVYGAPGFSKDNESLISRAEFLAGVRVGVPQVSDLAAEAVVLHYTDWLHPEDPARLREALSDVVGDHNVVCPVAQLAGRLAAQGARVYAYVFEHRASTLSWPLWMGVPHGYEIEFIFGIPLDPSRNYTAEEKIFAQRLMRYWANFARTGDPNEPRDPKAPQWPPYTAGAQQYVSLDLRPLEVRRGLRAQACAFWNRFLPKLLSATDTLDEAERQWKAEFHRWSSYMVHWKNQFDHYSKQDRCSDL

[14] = system: SH-SY5Y cells; test: Total antioxidant activity in membrane and cytosolic fractions (ABTS decolorization); format: cell-based, human; settings: SH-SY5Y treated 2 h, vs untreated cells
[15] = system: SH-SY5Y cells; test: Aβ25-35 peptide-induced cytotoxicity, MTT assay, SH-SY5Y cells; settings: 1–30 μmol/L, Aβ25-35 5 μmol/L, 3 h
[16] = system: THP-1 cells; test: Aβ-induced toxicity (Aβ1-42 oligomers, Aβ25-35), MTT assay, THP-1 cells; format: cell-based, human; settings: 1–30 μmol/L, Aβ 5 μmol/L, 3 h
[17] = THP-1, ± SEM, 5 μmol/L Aβ1-42 oligomers, 3 h, MTT, highest tested concentration 30 μmol/L
[18] = SH-SY5Y, ± SEM, 5 μmol/L Aβ1-42 oligomers, MTT, highest tested concentration 30 μmol/L

T1 sequence (P56817 46-501): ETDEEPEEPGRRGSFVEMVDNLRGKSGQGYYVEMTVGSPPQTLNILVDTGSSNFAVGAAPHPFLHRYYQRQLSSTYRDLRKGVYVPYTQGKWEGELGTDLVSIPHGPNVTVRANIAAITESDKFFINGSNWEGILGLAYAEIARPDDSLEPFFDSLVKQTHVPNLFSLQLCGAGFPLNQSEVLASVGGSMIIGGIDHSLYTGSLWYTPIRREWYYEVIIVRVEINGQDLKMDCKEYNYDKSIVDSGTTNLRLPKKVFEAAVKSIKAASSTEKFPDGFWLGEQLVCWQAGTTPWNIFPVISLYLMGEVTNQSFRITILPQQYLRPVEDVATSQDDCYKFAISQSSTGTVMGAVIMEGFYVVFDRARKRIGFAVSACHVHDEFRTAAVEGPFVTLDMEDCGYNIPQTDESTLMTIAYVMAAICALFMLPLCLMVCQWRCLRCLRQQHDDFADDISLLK

Row | SMILES | IC50 [2, 17] [µM] | inhibition of hAChE-induced amyloid aggregation [3] [%] | IC50 [4] [µM] | IC50 [5] [µM] | IC50 [6, 18] [µM] | binding of Aβ1-42 oligomers with SH-SY5Y cells (CR assay) [7] | binding of Aβ1-42 oligomers with THP-1 cells (CR assay) [8] | IC50 [9] | cytotoxicity elicited by Aβ25-35 peptide in SH-SY5Y cells [15] | also measured
1 | c1ccc2c(NCCCCCCCNc3c4c(nc5ccccc35)CCCC4)c3c(nc2c1)CCCC3 [bis(7)-tacrine] |  |  |  |  |  |  |  |  |  | IC50 ([1]; noncompetitive BACE1 inhibitor, ref Fu et al. [2008], read-out: BACE1 inhibitory activity): 7.5 µM
2 | CCN(Cc1ccccc1)Cc1ccc(-c2cc3cc(OC)c(OC)cc3oc2=O)cc1 [AP2243] | > 30 | 38 | 118 ± 16 | > 50 | > 30 | did not modify | did not modify | 0.24 ± 0.03 µM |  | 
3 | CCN(Cc1ccccc1)Cc1ccc(-c2cc3cc(O)c(O)cc3oc2=O)cc1 [AP2469, 3-{4-[(Benzylethylamino)-methyl]phenyl}-6,7-dihydroxychromen-2-one] | 8.18 ± 0.51 |  | 124 ± 13 | 21.7 ± 3.4 | 7.5 ± 0.72 | significantly reduced | significantly reduced | 6.5 µM and 6.49 µM | dose-dependent decrease | ROS formation induced by t-BuOOH [10]: significantly reduced; Aβ1-42 oligomer-induced hydrogen peroxide and superoxide anion formation [11]: significantly inhibited; inhibition at 30 µM ([6]; at 30 μmol/L, Aβ1-42 oligomers 5 μmol/L, SH-SY5Y cells): 93%; Aβ1-42 oligomer-induced TNFα release ([12]; ELISA): inhibited; Aβ1-42 oligomer-induced NO release ([12]; Griess reagent): reduced; IC50 [13]: 8.6 ± 0.21 µM; total antioxidant activity (TAA), membrane fraction ([14]; 3–30 μmol/L): significant only at the highest tested concentration; total antioxidant activity (TAA), cytosolic fraction ([14]; all tested concentrations (3–30 μmol/L)): significant TAA increase; Aβ-induced toxicity in THP-1 cells [16]: significant inhibitor effects
4 | COc1ccc2c3c1O[C@H]1C[C@@H](O)C=C[C@@]31CCN(C)C2 [Galantamine, reference compound] |  |  |  | > 50 |  |  |  |  | dose-dependent decrease | IC50 ([2]; THP-1, 3 h): > 30 µM; IC50 ([6]; SH-SY5Y): 7.99 ± 0.91 µM; inhibition at 30 µM ([6]; SH-SY5Y): 58%; IC50 ([1]; not active at the highest tested concentration (5 μmol/L), ref Mancini et al. [2007], read-out: IC50 BACE1): > 5 µM
5 | COc1cc2cc(-c3ccc(CN(C)Cc4ccccc4)cc3)c(=O)oc2cc1OC [AP2238, 3-(4-{[Benzyl(methyl)amino]methyl}-phenyl)-6,7-dimethoxy-2H-2-chromenone] |  | 35 |  | > 50 |  |  |  |  |  | 
